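Exposure lasted 48 hours, with cells grown in 96-well plates and compounds tested at five concentrations. TGI denotes the concentration required for complete inhibition of growth.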
Columns and labels:
Assay in all cases: NCI-60 cell line screen, 48 h
786-0 renal = system: 786-0 renal
A498 renal = system: A498 renal
A549 NSCLC = system: A549 NSCLC
ACHN renal = system: ACHN renal
BT-549 breast = system: BT-549 breast
CCRF-CEM leukemia = system: CCRF-CEM leukemia
COLO 205 colon = system: COLO 205 colon
DU-145 prostate = system: DU-145 prostate
EKVX NSCLC = system: EKVX NSCLC
HCC-2998 colon = system: HCC-2998 colon
HCT-116 colon = system: HCT-116 colon
HCT-15 colon = system: HCT-15 colon
HL-60(TB) leukemia = system: HL-60(TB) leukemia
HOP-62 NSCLC = system: HOP-62 NSCLC
HOP-92 NSCLC = system: HOP-92 NSCLC
HS 578T breast = system: HS 578T breast
HT29 colon = system: HT29 colon
IGROV1 ovarian = system: IGROV1 ovarian
K-562 leukemia = system: K-562 leukemia
KM12 colon = system: KM12 colon
M14 melanoma = system: M14 melanoma
MALME-3M melanoma = system: MALME-3M melanoma
MCF7 breast = system: MCF7 breast
MDA-MB-231 breast = system: MDA-MB-231 breast
MDA-MB-435 = system: MDA-MB-435
MDA-N = system: MDA-N
MOLT-4 leukemia = system: MOLT-4 leukemia
NCI-H226 lung = system: NCI-H226 lung
NCI-H23 lung = system: NCI-H23 lung
NCI-H460 lung = system: NCI-H460 lung
NCI-H522 lung = system: NCI-H522 lung
NCI/ADR-RES ovarian = system: NCI/ADR-RES ovarian
OVCAR-3 ovarian = system: OVCAR-3 ovarian
OVCAR-4 ovarian = system: OVCAR-4 ovarian
OVCAR-5 ovarian = system: OVCAR-5 ovarian
OVCAR-8 ovarian = system: OVCAR-8 ovarian
PC-3 prostate = system: PC-3 prostate
RPMI-8226 leukemia = system: RPMI-8226 leukemia
RXF 393 renal = system: RXF 393 renal
SF-268 CNS = system: SF-268 CNS
SF-295 CNS = system: SF-295 CNS
SF-539 CNS = system: SF-539 CNS
SK-MEL-2 melanoma = system: SK-MEL-2 melanoma
SK-MEL-28 melanoma = system: SK-MEL-28 melanoma
SK-MEL-5 melanoma = system: SK-MEL-5 melanoma
SK-OV-3 ovarian = system: SK-OV-3 ovarian
SN12C renal = system: SN12C renal
SNB-19 CNS = system: SNB-19 CNS
SNB-75 CNS = system: SNB-75 CNS
SW-620 colon = system: SW-620 colon
T-47D breast = system: T-47D breast
U251 CNS = system: U251 CNS
UACC-62 melanoma = system: UACC-62 melanoma
UO-31 renal = system: UO-31 renal
CAKI-1 renal = system: CAKI-1 renal
LOX IMVI melanoma = system: LOX IMVI melanoma
TK-10 renal = system: TK-10 renal
UACC-257 melanoma = system: UACC-257 melanoma

Molecule `Nc1ccc2nc3ccc(=O)cc-3n(-c3ccccc3)c2c1` has a TGI (786-0 renal) of over 100 µM, a TGI (A498 renal) of 85.7 µM and a TGI (A549 NSCLC) of over 100 µM. For the same molecule, the TGI (ACHN renal) was over 100 µM, the TGI (BT-549 breast) was over 100 µM and the TGI (CCRF-CEM leukemia) was over 100 µM. For the same molecule, the TGI (COLO 205 colon) was over 100 µM, the TGI (DU-145 prostate) was over 100 µM and the TGI (EKVX NSCLC) was over 100 µM. The TGI (HCC-2998 colon) was over 100 µM, the TGI (HCT-116 colon) was over 100 µM and the TGI (HCT-15 colon) was over 100 µM. For the same molecule, the TGI (HL-60(TB) leukemia) was over 100 µM, the TGI (HOP-62 NSCLC) was over 100 µM and the TGI (HOP-92 NSCLC) was over 100 µM. For the same molecule, the TGI (HS 578T breast) was over 100 µM, the TGI (HT29 colon) was over 100 µM and the TGI (IGROV1 ovarian) was over 100 µM. The TGI (K-562 leukemia) was over 100 µM, the TGI (KM12 colon) was over 100 µM and the TGI (M14 melanoma) was over 100 µM. For the same molecule, the TGI (MALME-3M melanoma) was over 100 µM, the TGI (MCF7 breast) was over 100 µM and the TGI (MDA-MB-231 breast) was over 100 µM. It also gave a TGI (MDA-MB-435) of over 100 µM, a TGI (MDA-N) of over 100 µM and a TGI (MOLT-4 leukemia) of over 100 µM. It also gave a TGI (NCI-H226 lung) of over 100 µM, a TGI (NCI-H23 lung) of over 100 µM and a TGI (NCI-H460 lung) of over 100 µM. For the same molecule, the TGI (NCI-H522 lung) was over 100 µM, the TGI (NCI/ADR-RES ovarian) was over 100 µM and the TGI (OVCAR-3 ovarian) was over 100 µM. The TGI (OVCAR-4 ovarian) was over 100 µM, the TGI (OVCAR-5 ovarian) was over 100 µM and the TGI (OVCAR-8 ovarian) was over 100 µM. It also gave a TGI (PC-3 prostate) of over 100 µM, a TGI (RPMI-8226 leukemia) of over 100 µM and a TGI (RXF 393 renal) of over 100 µM. It also gave a TGI (SF-268 CNS) of over 100 µM, a TGI (SF-295 CNS) of over 100 µM and a TGI (SF-539 CNS) of over 100 µM. For the same molecule, the TGI (SK-MEL-2 melanoma) was over 100 µM, the TGI (SK-MEL-28 melanoma) was over 100 µM and the TGI (SK-MEL-5 melanoma) was over 100 µM. For the same molecule, the TGI (SK-OV-3 ovarian) was over 100 µM, the TGI (SN12C renal) was over 100 µM and the TGI (SNB-19 CNS) was over 100 µM. It also gave a TGI (SNB-75 CNS) of 92.4 µM, a TGI (SW-620 colon) of over 100 µM and a TGI (T-47D breast) of over 100 µM. The TGI (U251 CNS) was over 100 µM, the TGI (UACC-62 melanoma) was over 100 µM and the TGI (UO-31 renal) was over 100 µM.
Molecule `CC(C)=CCc1c(O)c(CC2=C(O)C(C)=C(O)C(CC=C(C)C)(C(=O)C(C)C)C2=O)c(O)c(C(=O)C(C)C)c1O` (stereo unspecified) has a TGI (786-0 renal) of over 35.3 µM, a TGI (A498 renal) of over 38.9 µM and a TGI (A549 NSCLC) of over 47.7 µM. For the same molecule, the TGI (ACHN renal) was over 40.5 µM, the TGI (BT-549 breast) was 36.9 µM and the TGI (CAKI-1 renal) was over 47.7 µM. For the same molecule, the TGI (CCRF-CEM leukemia) was over 15.1 µM, the TGI (COLO 205 colon) was over 47.7 µM and the TGI (DU-145 prostate) was over 47.7 µM. The TGI (EKVX NSCLC) was over 44.6 µM, the TGI (HCC-2998 colon) was over 38.9 µM and the TGI (HCT-116 colon) was 19.8 µM. The TGI (HCT-15 colon) was over 47.7 µM, the TGI (HL-60(TB) leukemia) was over 47.7 µM and the TGI (HOP-62 NSCLC) was over 29.5 µM. For the same molecule, the TGI (HOP-92 NSCLC) was 25.5 µM, the TGI (HS 578T breast) was 21.6 µM and the TGI (HT29 colon) was 12.6 µM. The TGI (IGROV1 ovarian) was 31.3 µM, the TGI (K-562 leukemia) was 34 µM and the TGI (KM12 colon) was 17.5 µM. For the same molecule, the TGI (LOX IMVI melanoma) was over 28.1 µM, the TGI (M14 melanoma) was over 36.6 µM and the TGI (MALME-3M melanoma) was 17.9 µM. For the same molecule, the TGI (MCF7 breast) was over 45.3 µM, the TGI (MDA-MB-231 breast) was 46.5 µM and the TGI (MDA-MB-435) was over 38.4 µM. The TGI (MDA-N) was 38.1 µM, the TGI (MOLT-4 leukemia) was 11.4 µM and the TGI (NCI-H226 lung) was 21.8 µM. It also gave a TGI (NCI-H23 lung) of 25.4 µM, a TGI (NCI-H522 lung) of 21.5 µM and a TGI (NCI/ADR-RES ovarian) of 27.5 µM. For the same molecule, the TGI (OVCAR-3 ovarian) was over 38.1 µM, the TGI (OVCAR-4 ovarian) was over 47.7 µM and the TGI (OVCAR-5 ovarian) was over 42.5 µM. For the same molecule, the TGI (OVCAR-8 ovarian) was 31.2 µM, the TGI (PC-3 prostate) was over 47.7 µM and the TGI (RPMI-8226 leukemia) was over 31.2 µM. The TGI (RXF 393 renal) was over 47.7 µM, the TGI (SF-268 CNS) was over 47.7 µM and the TGI (SF-295 CNS) was over 38.1 µM. It also gave a TGI (SF-539 CNS) of over 47.7 µM, a TGI (SK-MEL-2 melanoma) of over 31.4 µM and a TGI (SK-MEL-28 melanoma) of over 31.7 µM. For the same molecule, the TGI (SK-MEL-5 melanoma) was 18.3 µM, the TGI (SK-OV-3 ovarian) was over 47.7 µM and the TGI (SN12C renal) was over 47.7 µM. It also gave a TGI (SNB-19 CNS) of over 31 µM, a TGI (SNB-75 CNS) of over 47.7 µM and a TGI (SW-620 colon) of over 44.7 µM. The TGI (T-47D breast) was 33.7 µM, the TGI (TK-10 renal) was over 47.7 µM and the TGI (U251 CNS) was over 40.2 µM. It also gave a TGI (UACC-257 melanoma) of 28.8 µM, a TGI (UACC-62 melanoma) of 22.4 µM and a TGI (UO-31 renal) of 19.5 µM.
Molecule `N#CCCN(CCNc1ccccc1)C(=O)Nc1ccc(NC(=O)N(CCC#N)CCNc2ccccc2)cc1` has a TGI (786-0 renal) of over 100 µM, a TGI (A498 renal) of over 100 µM and a TGI (A549 NSCLC) of over 100 µM. The TGI (ACHN renal) was over 100 µM, the TGI (BT-549 breast) was over 80.4 µM and the TGI (CAKI-1 renal) was over 100 µM. The TGI (COLO 205 colon) was over 100 µM, the TGI (DU-145 prostate) was over 100 µM and the TGI (EKVX NSCLC) was over 100 µM. For the same molecule, the TGI (HCC-2998 colon) was over 100 µM, the TGI (HCT-116 colon) was over 100 µM and the TGI (HCT-15 colon) was over 100 µM. It also gave a TGI (HOP-62 NSCLC) of over 84.7 µM, a TGI (HOP-92 NSCLC) of over 81.5 µM and a TGI (HS 578T breast) of over 64.2 µM. The TGI (HT29 colon) was over 100 µM, the TGI (K-562 leukemia) was over 100 µM and the TGI (KM12 colon) was over 100 µM. For the same molecule, the TGI (LOX IMVI melanoma) was over 100 µM, the TGI (M14 melanoma) was over 100 µM and the TGI (MALME-3M melanoma) was over 100 µM. For the same molecule, the TGI (MCF7 breast) was over 100 µM, the TGI (MDA-MB-231 breast) was over 100 µM and the TGI (MDA-MB-435) was over 100 µM. The TGI (MDA-N) was over 100 µM, the TGI (MOLT-4 leukemia) was over 100 µM and the TGI (NCI-H226 lung) was over 100 µM. For the same molecule, the TGI (NCI-H23 lung) was over 100 µM, the TGI (NCI-H460 lung) was over 100 µM and the TGI (NCI-H522 lung) was over 66.3 µM. The TGI (NCI/ADR-RES ovarian) was over 100 µM, the TGI (OVCAR-3 ovarian) was over 100 µM and the TGI (OVCAR-4 ovarian) was over 31.6 µM. It also gave a TGI (OVCAR-5 ovarian) of over 100 µM, a TGI (OVCAR-8 ovarian) of over 100 µM and a TGI (PC-3 prostate) of over 100 µM. It also gave a TGI (RPMI-8226 leukemia) of over 100 µM, a TGI (RXF 393 renal) of over 83 µM and a TGI (SF-268 CNS) of over 79.9 µM. The TGI (SF-295 CNS) was over 100 µM, the TGI (SF-539 CNS) was over 100 µM and the TGI (SK-MEL-2 melanoma) was over 100 µM. The TGI (SK-MEL-28 melanoma) was over 100 µM, the TGI (SK-MEL-5 melanoma) was over 100 µM and the TGI (SK-OV-3 ovarian) was over 100 µM. It also gave a TGI (SN12C renal) of over 100 µM, a TGI (SNB-19 CNS) of over 100 µM and a TGI (SNB-75 CNS) of 72 µM. The TGI (SW-620 colon) was over 100 µM, the TGI (T-47D breast) was over 100 µM and the TGI (TK-10 renal) was 98 µM. The TGI (U251 CNS) was over 100 µM, the TGI (UACC-257 melanoma) was over 100 µM and the TGI (UACC-62 melanoma) was over 100 µM. For the same molecule, the TGI (UO-31 renal) was over 100 µM.

Source: PubChem BioAssay (NCI)
